# Strand notation (5' to 3'): a small letter for the sugar, then the base; units joined by * are phosphorothioate-linked, units joined directly phosphodiester-linked; [ ] holds rarer units or linkages, { } end groups; capitals alone tell only the bases. e = 2'-O-(2-methoxyethyl) (MOE); k = constrained ethyl (cEt); [5mC] = 5-methylcytosine; d = 2'-deoxy (DNA); m = 2'-O-methyl
# Tested on: Yap1 mRNA
# Assay: Antisense inhibition of human Yap1 in SNU-449 cells by modified oligonucleotides, single dose (Example 5, RTS36584)
# Assay type: cell-based
# Details: Table 39; SNU-449 cells, 10,000 cells per well, free uptake, 2,000 nM oligonucleotide, approx. 48 hours; RTS36584; normalized to RIBOGREEN; Yap1 mRNA relative to untreated control
# How it was run: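 SNU-449 cells were given 2,000 nM oligonucleotide by free uptake for about 48 h. Yap1 mRNA was then measured by RT-qPCR with primer probe set RTS36584, normalized to total RNA by RIBOGREEN and expressed as percent of untreated control.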
row,Substance,YAP1 (% UTC)
1,1198414 (kA*dT*dT*dT*dA*dG*dG*dA*dT*dG*d[5mC]*kA*eT*kG*eG*kT) [Compound 1198414],20
2,1198451 (k[5mC]*dT*dA*dA*dG*dT*dA*dA*dG*dG*dT*kT*eT*k[5mC]*e[5mC]*k[5mC]; antisense) [Compound 1198451],48
3,1198400 (kA*dA*dG*d[5mC]*dA*d[5mC]*dT*dT*dT*dT*dA*k[5mC]*eA*kT*eT*kA; antisense) [Compound 1198400],62

# Same assay, conditions: Table 40 (separate experiment); SNU-449 cells, 10,000 cells per well, free uptake, 2,000 nM oligonucleotide, approx. 48 hours; RTS36584; normalized to RIBOGREEN; Yap1 mRNA relative to untreated control
row,Substance,YAP1 (% UTC)
1,1198802 (antisense kA*eG*kA*d[5mC]*dT*dA*dA*dG*dT*dA*dA*dG*eG*eT*kT*kT) [Compound 1198802],83
2,1198716 (kA*eA*kT*dT*dG*dT*d[5mC]*dT*d[5mC]*dA*dT*dG*e[5mC]*e[5mC]*kT*kT; antisense) [Compound 1198716],27
3,1198779 (antisense kA*eA*kT*dA*dT*dT*dG*d[5mC]*dA*dA*dT*d[5mC]*eT*eG*kT*k[5mC]) [Compound 1198779],49

# Same assay, conditions: Table 41; SNU-449 cells, 10,000 cells per well, free uptake, 2,000 nM modified oligonucleotide, approximately 48 hours; RTS36584; normalized to RIBOGREEN; Yap1 mRNA relative to untreated control cells
row,Substance,YAP1 (% UTC)
1,1198659 (antisense kT*kT*dA*dA*dG*d[5mC]*dA*d[5mC]*dT*dT*dT*dT*kA*e[5mC]*kA*eT) [Compound 1198659],58
2,1198656 (kG*k[5mC]*dA*d[5mC]*dT*dT*dT*dT*dA*d[5mC]*dA*dT*kT*eA*kG*eG; antisense) [Compound 1198656],11
3,1198739 (k[5mC]*eA*k[5mC]*dT*dG*dA*dG*dG*dT*dA*dT*dA*eA*e[5mC]*kT*kG; antisense) [Compound 1198739],94
4,1198636 (kA*kT*dA*dT*dG*dG*dA*dA*dA*dT*dT*dG*kT*e[5mC]*kT*e[5mC]; antisense) [Compound 1198636],41

# Same assay, conditions: Table 42 (separate experiment); SNU-449 cells, 10,000 cells per well, free uptake, 2,000 nM modified oligonucleotide, approximately 48 hours; RTS36584; normalized to RIBOGREEN; Yap1 mRNA relative to untreated control cells
row,Substance,YAP1 (% UTC)
1,1198682 (antisense k[5mC]*kT*d[5mC]*dT*dT*dA*dT*dA*dT*dG*dG*dT*kT*eT*kT*eG) [Compound 1198682],25
2,1095481 (antisense kT*kG*dA*dG*dG*dT*dA*dT*dA*dA*d[5mC]*dT*kG*eG*kG*e[5mC]) [Compound 1095481],21
3,1198200 (kA*kA*dT*dT*dG*dT*d[5mC]*dT*d[5mC]*dA*dT*eG*e[5mC]*e[5mC]*kT*kT; antisense) [Compound 1198200],49
4,1198678 (antisense kA*kT*dA*dT*dG*dG*dT*dT*dT*dT*dG*dT*kG*eT*kG*eT) [Compound 1198678],58

# Same assay, conditions: Table 43 experiment; SNU-449 cells, 10,000 cells per well, free uptake, 2,000 nM, approximately 48 hours; RTS36584; Yap1 mRNA normalized to RIBOGREEN, relative to untreated control cells
row,Substance,YAP1 (% UTC)
1,1198481 (antisense k[5mC]*kT*dT*dT*dT*dA*d[5mC]*dA*dT*dT*dA*eG*kG*eA*kA*e[5mC]) [Compound 1198481],72
2,1198463 (antisense kA*kT*dG*dG*dA*dA*dA*dT*dT*dG*dT*e[5mC]*kT*e[5mC]*kA*eT) [Compound 1198463],59
3,1198283 (kT*kT*dA*dG*dA*d[5mC]*dT*dA*dA*dG*dT*eA*eA*eG*kG*kT; antisense) [Compound 1198283],99
4,1198461 (antisense kG*kG*dA*dA*dA*dT*dT*dG*dT*d[5mC]*dT*e[5mC]*kA*eT*kG*e[5mC]) [Compound 1198461],24

# Same assay, conditions: Table 44 experiment; SNU-449 cells, 10,000 cells per well, free uptake, 2,000 nM, approximately 48 hours; RTS36584; Yap1 mRNA normalized to RIBOGREEN, relative to untreated control cells
row,Substance,YAP1 (% UTC)
1,1198538 (kA*k[5mC]*dT*dA*dA*dG*dT*dA*dA*dG*dG*eT*kT*eT*k[5mC]*e[5mC]; antisense) [Compound 1198538],29
2,1198502 (kA*kG*dA*dT*dT*dT*dA*dG*dG*dA*dT*eG*k[5mC]*eA*kT*eG; antisense) [Compound 1198502],16

# Same assay, conditions: Table 45; Yap1 mRNA as percent of untreated control, SNU-449 cells, single dose
row,Substance,YAP1 (% UTC)
1,1198951 (kA*kA*dT*dA*dT*dT*dG*d[5mC]*dA*dA*dT*k[5mC]*dT*kG*dT*k[5mC]; antisense) [Compound 1198951],81
2,1198961 (kA*kA*dA*dG*dT*dG*dT*dA*dT*dG*dT*k[5mC]*dA*kG*dA*kA; antisense) [Compound 1198961],12
3,1198916 (kA*k[5mC]*dT*dT*dT*dT*dA*d[5mC]*dA*dT*dT*kA*dG*kG*dA*kA; antisense) [Compound 1198916],59
4,1198926 (kG*k[5mC]*dT*dT*dT*dG*dG*dA*dA*dG*dA*kT*d[5mC]*kT*dG*kA; antisense) [Compound 1198926],45

# Same assay, conditions: Table 46; Yap1 mRNA as percent of untreated control, SNU-449 cells, single dose
row,Substance,YAP1 (% UT)
1,1198847 (kT*kT*dT*dA*dG*dG*dA*dT*dG*d[5mC]*dA*kT*eG*kG*eT*kT; antisense) [Compound 1198847],51
2,1198809 (antisense kG*kG*dA*dA*dA*dT*dT*dG*dT*d[5mC]*dT*k[5mC]*eA*kT*eG*k[5mC]) [Compound 1198809],27

# Same assay, conditions: Table 48; Yap1 mRNA level relative to untreated control; modified oligonucleotides targeting SEQ ID NO.: 1 and 2
row,Substance,YAP1 (% UT)
1,1198284 (kT*kG*kT*d[5mC]*dT*d[5mC]*dA*dT*dG*d[5mC]*d[5mC]*dT*kT*eA*kT*eA; antisense) [Compound 1198284],27
2,1198343 (kA*kT*kT*dG*d[5mC]*dA*dA*dT*d[5mC]*dT*dG*dT*k[5mC]*eT*kG*eA; antisense) [Compound 1198343],39
3,1198329 (kG*kA*kT*dT*dT*dA*dG*dG*dA*dT*dG*d[5mC]*kA*eT*kG*eG; antisense) [Compound 1198329],36
4,1198288 (kG*kA*kA*dA*dT*dT*dG*dT*d[5mC]*dT*d[5mC]*dA*kT*eG*k[5mC]*e[5mC]; antisense) [Compound 1198288],10

# Same assay, conditions: Table 49; Yap1 mRNA level relative to untreated control; modified oligonucleotides targeting SEQ ID NO.: 1 and 2
row,Substance,YAP1 (% UT)
1,1198352 (kT*kG*kT*dA*dT*dG*dT*d[5mC]*dA*dG*dA*dA*kG*eA*kG*eT; antisense) [Compound 1198352],7
2,1198357 (kT*kT*kA*dA*dA*dG*dT*dG*dT*dA*dT*dG*kT*e[5mC]*kA*eG; antisense) [Compound 1198357],21
3,1198546 (antisense kG*kA*kA*dA*dT*dT*dG*dT*d[5mC]*dT*d[5mC]*dA*kT*kG*k[5mC]*e[5mC]) [Compound 1198546],11
4,1198350 (kT*kA*kT*dG*dT*dA*dA*dT*dA*dT*dT*dG*k[5mC]*eA*kA*eT; antisense) [Compound 1198350],83
5,1198339 (kA*k[5mC]*kT*d[5mC]*dT*dT*dA*dT*dA*dT*dG*dG*kT*eT*kT*eT; antisense) [Compound 1198339],25

# Same assay, conditions: Table 50; Yap1 mRNA remaining as percent of untreated control (UT), SNU-449 cells, single dose
row,Substance,YAP1 (% UT)
1,1197281 (kA*kT*kT*dG*mU*d[5mC]*dT*dC*dA*dT*dG*d[5mC]*d[5mC]*kT*kT*kA; antisense) [Compound 1197281],42
2,1198605 (antisense kG*kT*kA*dA*dT*dA*dT*dT*dG*d[5mC]*dA*dA*kT*k[5mC]*kT*eG) [Compound 1198605],7
3,1197280 (kT*kG*kT*d[5mC]*mU*d[5mC]*dA*dT*dG*d[5mC]*d[5mC]*dT*dT*kA*kT*kA; antisense) [Compound 1197280],53
4,1198613 (antisense kA*kA*kA*dG*dT*dG*dT*dA*dT*dG*dT*d[5mC]*kA*kG*kA*eA) [Compound 1198613],3

# Same assay, conditions: Table 51; Yap1 mRNA remaining as percent of untreated control (UT), SNU-449 cells, single dose
row,Substance,YAP1 (% UT)
1,"1200800 (T_{ks}A_{ks}T_{ks}A_{ds}T_{ds}U_{ys}A_{ds}G_{ds}A_{ds}G_{ds}T_{ds}A_{ds}T_{ds}G_{ks}T_{ks}G_{k}; antisense; as printed in the source, key not given here) [Compound 1200800]",61
2,1200796 (kT*kT*kA*dG*dA*mG*dT*dA*dT*dG*dT*dG*dG*k[5mC]*kA*kA; antisense) [Compound 1200796],15
3,1197251 (antisense kT*kT*kT*dG*mG*dA*dA*dG*dA*dT*d[5mC]*dT*dG*kA*kA*kA) [Compound 1197251],74

# Same assay, conditions: Table 52; Yap1 mRNA, modified oligonucleotides targeting SEQ ID NO: 1 and 2
row,Substance,YAP1 (% UT)
1,1200827 (kA*kG*kT*dG*d[5mC]*mU*dT*dT*dG*dG*dA*dA*dG*kA*kT*k[5mC]) [Compound 1200827],67
2,1200868 (kT*kA*kA*dG*dT*mA*dA*dG*dG*dT*dT*dT*d[5mC]*k[5mC]*k[5mC]*kA; antisense) [Compound 1200868],36

# Same assay, conditions: Yap1 mRNA, percent of untreated control; modified oligonucleotides targeting SEQ ID NO: 1 and 2; Table 47
row,Substance,YAP1 (% UT)
1,1009324 (kA*kG*kT*dA*dT*dG*dT*dG*dG*d[5mC]*dA*dA*dT*kA*kA*kT; antisense) [Compound 1009324],27
2,1197208 (antisense kT*kA*kA*dT*dA*dT*dT*dG*d[5mC]*dA*dA*dT*d[5mC]*kT*kG*kT) [Compound 1197208],66
3,1198879 (k[5mC]*kT*dT*dT*dA*dA*dA*dG*dT*dG*dT*kA*eT*kG*eT*k[5mC]; antisense) [Compound 1198879],29
